This is an account of results in US20240101562A1, “NOVEL COMPOUND, AND PHARMACEUTICAL COMPOSITION FOR PREVENTING OR TREATING RESISTANT CANCER, COMPRISING SAME” (HOLOSMEDIC, priority 2020, published 2024).

Type in all cases: cell-based
The subject of assay [1] is SKOV3-TR cell line (paclitaxel-resistant, derived from SKOV3). Nature of the assay: WST-1 assay, co-treatment with docetaxel, SKOV3-TR. The settings on record: docetaxel alone, 1 μM, three days. How it is done:
(§1) According to the results of WST-1 assays, which measure cell proliferation or survival, a reduction in metabolism in SKOV3 and SKOV3-TR was induced by docetaxel treatment.
(§2) After SKOV3 and SKOV3-TR were co-treated with 79 types of compounds and docetaxel, the WST-1 assays were performed.
(§3) Specifically, the two cancer cell lines grown in 96-well plates were treated with the 79 types of compounds at a low concentration (0.5 μM) or a high concentration (2 μM) and docetaxel, and the docetaxel concentration used herein were 1 μM for the SKOV3-TR cell line and 0.75 nM for the SKOV3 cell line. For cytotoxicity analysis, three days after the co-treatment of DMSO (docetaxel, compound solvent), docetaxel and the 79 types of compounds, the WST-1 assays were performed.

Assay [2] deals with SKOV3 cell line (epithelial ovarian cancer). The assay can be described thus: WST-1 assay, co-treatment with docetaxel, SKOV3. The settings on record: docetaxel alone, 0.75 nM, SKOV3, three days. How it is done: as §1, §2, §3
Assay [3] deals with SKOV3-TR cell line (paclitaxel-resistant, derived from SKOV3). Nature of the assay: WST-1 assay, co-treatment with paclitaxel, SKOV3-TR. To be noted: paclitaxel alone, 3 μM or 4 μM, three days. How it is done: (§4) According to the results of WST-1 assays, which measure cell proliferation or survival, a reduction in metabolism in SKOV3 and SKOV3-TR was induced by paclitaxel treatment. The WST-1 assays were performed after SKOV3 and SKOV3-TR were co-treated with 79 types of compounds and paclitaxel.
(§5) Specifically, the two cancer cell lines grown in 96-well plates were treated with the 79 types of compounds at a low concentration (0.5 μM) or a high concentration (2 μM) and paclitaxel, and the paclitaxel concentration used herein was 3 μM or 4 μM for the SKOV3-TR cell line, and 2 nM or 0.05 μM for the SKOV3 cell line. For cytotoxicity analysis, three days after co-treatment of DMSO (paclitaxel, compound solvent), paclitaxel and the 79 types of compounds, the WST-1 assays were performed.

Assay [4] relates to SKOV3 cell line (epithelial ovarian cancer). Nature of the assay: WST-1 assay, co-treatment with paclitaxel, SKOV3. The settings on record: paclitaxel alone, 2 nM or 0.05 μM, SKOV3, three days. The procedure:
as §4, §5

For `CC(=O)O[C@@]12CO[C@@H]1C[C@H](O)[C@@]1(C)C(=O)[C@H](O)C3=C(C)[C@@H](OC(=O)[C@H](O)[C@@H](NC(=O)OC(C)(C)C)c4ccccc4)C[C@@](O)([C@@H](OC(=O)c4ccccc4)[C@H]21)C3(C)C` [docetaxel], the “absorbance at 450 nm compared to the DMSO-treated group” value in assay [1] and in assay [2] was “reduced” in each case.

Consider `CC(=O)O[C@H]1C(=O)[C@@]2(C)[C@H]([C@H](OC(=O)c3ccccc3)[C@]3(O)C[C@H](OC(=O)[C@H](O)[C@@H](NC(=O)c4ccccc4)c4ccccc4)C(C)=C1C3(C)C)[C@]1(OC(C)=O)CO[C@@H]1C[C@@H]2O` [paclitaxel], for which the “absorbance at 450 nm compared to the DMSO-treated group” value in assay [3] and in assay [4] was “reduced” throughout.
